Measurements taken from patent publication US20250290928A1, “METHOD, KIT AND DEVICE FOR DETECTING EXTRACELLULAR VESICLES” (priority 2022, published 2025).
“And” between values parts separate entries of the source, which are not always exact repeats. Equal entries are not always repeated. *: point of attachment. 5FAM = O=C1OC2(c3ccc(O)cc3Oc3cc(O)ccc32)c2ccc(C(=O)*)cc21; TQ2 = quencher

Experiments:
[1] = target: T1, MMP14 in the HT1080 culture supernatants and the culture medium samples (Homo sapiens, UniProt P50281); assay: Digital detection of MMP14 active component in HT1080 culture supernatants, culture media and recovered liquids in wells; assay type: biochemical; conditions: for MMP14 active component concentration: HT1080 culture Present
T1 construct: host or cells: HT1080 culture supernatant
Protocol: (§1) In addition, for detection of MMP14 activity, 1 mM Custom #1 was diluted with the buffer (4) to prepare a MMP14 detection solution containing 5 μM Custom #1 and 2 μM Alexa Fluor 647.

[2] = test system: MMP14 in the HT1080 culture supernatants and the culture medium samples; assay: as above; assay type: biochemical, Human; conditions: for original concentration in the culture supernatant / amount of the extracellular vesicles in the fraction (0.7 mL): Example 59, qEV; for original concentration in the culture supernatant: recovered from 3 mL of the culture supernatant; for amount of the extracellular vesicles in the fraction (0.7 mL): 4 h
Protocol: as §1

[3] = HT1080 culture supernatant recovered with exoEasy, Exo-FBS, Reaction 4 hr
[4] = HT1080 culture supernatant recovered with exoEasy, Exo-FBS, Reaction 24 hr
[5] = HT1080 culture supernatant recovered with exoEasy, MEM, Reaction 4 hr
[6] = HT1080 culture supernatant recovered with exoEasy, MEM, Reaction 24 hr
[7] = qEV recovered liquid, Exo-FBS, Fraction # 8, 4 hours of reaction
[8] = qEV recovered liquid, Exo-FBS, Fraction # 9, 4 hours of reaction
[9] = qEV recovered liquid, Exo-FBS, Fraction # 10, 4 hours of reaction
[10] = qEV recovered liquid, Exo-FBS, Fraction # 11, 4 hours of reaction
[11] = qEV recovered liquid, Exo-FBS, Fraction # 12, 4 hours of reaction
[12] = qEV recovered liquid, Exo-FBS, Fraction # 13, 4 hours of reaction
[13] = qEV recovered liquid, Exo-FBS, Fraction # 14, 4 hours of reaction
[14] = qEV recovered liquid, Exo-FBS, Fraction # 15, 4 hours of reaction
[15] = qEV recovered liquid, MEM, Fraction # 7, 4 hours of reaction
[16] = qEV recovered liquid, MEM, Fraction # 8, 4 hours of reaction
[17] = qEV recovered liquid, MEM, Fraction # 9, 4 hours of reaction
[18] = qEV recovered liquid, MEM, Fraction # 10, 4 hours of reaction
[19] = qEV recovered liquid, MEM, Fraction # 11, 4 hours of reaction
[20] = qEV recovered liquid, MEM, Fraction # 12, 4 hours of reaction
[21] = qEV recovered liquid, MEM, Fraction # 13, 4 hours of reaction
[22] = qEV recovered liquid, MEM, Fraction # 14, 4 hours of reaction
[23] = Experiment condition (I): FBS, HT1080 culture Present, only centrifugation, Reaction 4 hr
[24] = Experiment condition (I): FBS, HT1080 culture Present, only centrifugation, Reaction 24 hr
[25] = Experiment condition (II): FBS, HT1080 culture Present, centrifugation + filtration, Reaction 4 hr
[26] = Experiment condition (II): FBS, HT1080 culture Present, centrifugation + filtration, Reaction 24 hr
[27] = Experiment condition (III): FBS culture medium, HT1080 culture Absent, Reaction 4 hr
[28] = Experiment condition (III): FBS culture medium, HT1080 culture Absent, Reaction 24 hr
[29] = Experiment condition (IV): Exo-FBS, HT1080 culture Present, only centrifugation, Reaction 4 hr
[30] = Experiment condition (IV): Exo-FBS, HT1080 culture Present, only centrifugation, Reaction 24 hr
[31] = Experiment condition (IX): MEM culture medium, HT1080 culture Absent, Reaction 4 hr
[32] = Experiment condition (IX): MEM culture medium, HT1080 culture Absent, Reaction 24 hr
[33] = Experiment condition (V): Exo-FBS, HT1080 culture Present, centrifugation + filtration, Reaction 4 hr
[34] = Experiment condition (V): Exo-FBS, HT1080 culture Present, centrifugation + filtration, Reaction 24 hr
[35] = Experiment condition (VI): Exo-FBS culture medium, HT1080 culture Absent, Reaction 4 hr
[36] = Experiment condition (VI): Exo-FBS culture medium, HT1080 culture Absent, Reaction 24 hr
[37] = Experiment condition (VII): MEM, HT1080 culture Present, only centrifugation, Reaction 4 hr
[38] = Experiment condition (VII): MEM, HT1080 culture Present, only centrifugation, Reaction 24 hr
[39] = Experiment condition (VIII): MEM, HT1080 culture Present, centrifugation + filtration, Reaction 4 hr
[40] = Experiment condition (VIII): MEM, HT1080 culture Present, centrifugation + filtration, Reaction 24 hr

## [5-FAM]GRIGFLRTAK(TQ2)[OH] (5FAM-GRIGFLRTAK(TQ2)-OH) [Custom #1]
[1]; Experiment condition (I): FBS, only centrifugation, Reaction 4 hr
  MMP14 active component concentration: 3.611e+11 mL⁻¹
[1]; Experiment condition (I): FBS, only centrifugation, Reaction 24 hr
  MMP14 active component concentration: 3.753e+11 mL⁻¹
[1]; Experiment condition (II): FBS, centrifugation + filtration, Reaction 4 hr
  MMP14 active component concentration: 3.042e+11 mL⁻¹
[1]; Experiment condition (II): FBS, centrifugation + filtration, Reaction 24 hr
  MMP14 active component concentration: 3.0889e+11 mL⁻¹
[1]; Experiment condition (IV): Exo-FBS, only centrifugation, Reaction 4 hr
  MMP14 active component concentration: 2.013e+11 mL⁻¹
[1]; Experiment condition (IV): Exo-FBS, only centrifugation, Reaction 24 hr
  MMP14 active component concentration: 1.981e+11 mL⁻¹
[1]; Experiment condition (V): Exo-FBS, centrifugation + filtration, Reaction 4 hr
  MMP14 active component concentration: 2.275e+11 mL⁻¹
[1]; Experiment condition (V): Exo-FBS, centrifugation + filtration, Reaction 24 hr
  MMP14 active component concentration: 2.309e+11 mL⁻¹
[1]; Experiment condition (VII): MEM, only centrifugation, Reaction 4 hr
  MMP14 active component concentration: 1.341e+09 mL⁻¹
[1]; Experiment condition (VII): MEM, only centrifugation, Reaction 24 hr
  MMP14 active component concentration: 4.02e+09 mL⁻¹
[1]; Experiment condition (VIII): MEM, centrifugation + filtration, Reaction 4 hr
  MMP14 active component concentration: 2.057e+09 mL⁻¹
[1]; Experiment condition (VIII): MEM, centrifugation + filtration, Reaction 24 hr
  MMP14 active component concentration: 4.426e+09 mL⁻¹
[1]; [3]
  MMP14 extracellular vesicle concentration: 1.39e+11 mL⁻¹
[1]; [4]
  MMP14 extracellular vesicle concentration: 2.053e+11 mL⁻¹
[1]; [5]
  MMP14 extracellular vesicle concentration: 1.885e+09 mL⁻¹
[1]; [6]
  MMP14 extracellular vesicle concentration: 4.428e+09 mL⁻¹
[1]; [7]
  MMP14 extracellular vesicle concentration: 1.1833e+10 mL⁻¹
[1]; [8]
  MMP14 extracellular vesicle concentration: 2.8135e+10 mL⁻¹
[1]; [9]
  MMP14 extracellular vesicle concentration: 5.6859e+10 mL⁻¹
[1]; [10]
  MMP14 extracellular vesicle concentration: 5.8114e+10 mL⁻¹
[1]; [11]
  MMP14 extracellular vesicle concentration: 5.8598e+10 mL⁻¹
[1]; [12]
  MMP14 extracellular vesicle concentration: 5.2408e+10 mL⁻¹
[1]; [13]
  MMP14 extracellular vesicle concentration: 7.8483e+10 mL⁻¹
[1]; [14]
  MMP14 extracellular vesicle concentration: 1.2532e+11 mL⁻¹
[1]; [15]
  MMP14 extracellular vesicle concentration: 1.5912e+10 mL⁻¹
[1]; [16]
  MMP14 extracellular vesicle concentration: 7.493e+09 mL⁻¹
[1]; [17]
  MMP14 extracellular vesicle concentration: 6.37e+09 mL⁻¹
[1]; [18]
  MMP14 extracellular vesicle concentration: 7.04e+08 mL⁻¹
[1]; [19]
  MMP14 extracellular vesicle concentration: 4.42e+08 mL⁻¹
[1]; [20]
  MMP14 extracellular vesicle concentration: 4.64e+08 mL⁻¹
[1]; [21]
  MMP14 extracellular vesicle concentration: 9.78e+08 mL⁻¹
[1]; [22]
  MMP14 extracellular vesicle concentration: 3e+07 mL⁻¹
[2]; Exo-FBS
  original concentration in the culture supernatant: 9.3259e+09 mL⁻¹
[2]; Fraction #7 of the MEM
  amount of the extracellular vesicles in the fraction (0.7 mL): 1.114×10^10
[2]; Fraction #8 of the Exo-FBS
  amount of the extracellular vesicles in the fraction (0.7 mL): 0.8283×10^10
[2]; Fraction #8 of the MEM
  amount of the extracellular vesicles in the fraction (0.7 mL): 0.5245×10^10
[2]; Fraction #9 of the Exo-FBS
  amount of the extracellular vesicles in the fraction (0.7 mL): 1.969×10^10
[2]; MEM
  original concentration in the culture supernatant: 5.4612e+09 mL⁻¹
[2]; [23]
  Expected value λ: 0.9029
  Number of positives: 16,696
  Positive ratio: 0.5946
[2]; [24]
  Expected value λ: 0.9382
  Number of positives: 17,091
  Positive ratio: 0.6087
[2]; [25]
  Expected value λ: 0.7605
  Number of positives: 14,954
  Positive ratio: 0.5325
[2]; [26]
  Expected value λ: 0.7723 and 0.7722
  Number of positives: 15,051
  Positive ratio: 0.538
[2]; [27]
  Expected value λ: 0.6588
  Number of positives: 13,549
  Positive ratio: 0.4825
[2]; [28]
  Expected value λ: 0.686
  Number of positives: 13,900
  Positive ratio: 0.4964
[2]; [29]
  Expected value λ: 0.5033
  Number of positives: 11,105
  Positive ratio: 0.3955
[2]; [30]
  Expected value λ: 0.4954
  Number of positives: 10,939
  Positive ratio: 0.3906
[2]; [31]
  Expected value λ: 0.00011
  Number of positives: 3
  Positive ratio: 0.00011
[2]; [32]
  Expected value λ: 0.00014
  Number of positives: 4
  Positive ratio: 0.00014
[2]; [33]
  Expected value λ: 0.5687
  Number of positives: 12,180
  Positive ratio: 0.4338
[2]; [34]
  Expected value λ: 0.5771
  Number of positives: 12,313
  Positive ratio: 0.4385
[2]; [35]
  Expected value λ: 0.6217
  Number of positives: 12,998
  Positive ratio: 0.4629
[2]; [36]
  Expected value λ: 0.6019
  Number of positives: 12,698
  Positive ratio: 0.4522
[2]; [37]
  Expected value λ: 0.00335
  Number of positives: 94
  Positive ratio: 0.00335
[2]; [38]
  Expected value λ: 0.01005
  Number of positives: 280
  Positive ratio: 0.01005
[2]; [39]
  Expected value λ: 0.00514
  Number of positives: 144
  Positive ratio: 0.00513
[2]; [40]
  Expected value λ: 0.01107
  Number of positives: 309
  Positive ratio: 0.01107
[2]; [3]
  Expected value λ: 0.3476
  Number of positives: 8,245
  Positive ratio: 0.2936
[2]; [4]
  Expected value λ: 0.5132
  Number of positives: 11,272
  Positive ratio: 0.4014
[2]; [5]
  Expected value λ: 0.00471
  Number of positives: 132
  Positive ratio: 0.0047
[2]; [6]
  Expected value λ: 0.01107
  Number of positives: 308
  Positive ratio: 0.01101
[2]; [7]
  Expected value λ: 0.2958
  Number of positives: 7,164
  Positive ratio: 0.2561
[2]; [8]
  Expected value λ: 0.7034
  Number of positives: 14,130
  Positive ratio: 0.5051
[2]; [9]
  Expected value λ: 1.421
  Number of positives: 21,264
  Positive ratio: 0.7586
[2]; [10]
  Expected value λ: 1.453
  Number of positives: 21,512
  Positive ratio: 0.7661
[2]; [11]
  Expected value λ: 1.465
  Number of positives: 21,591
  Positive ratio: 0.7689
[2]; [12]
  Expected value λ: 1.3102
  Number of positives: 20,505
  Positive ratio: 0.7302
[2]; [13]
  Expected value λ: 1.962
  Number of positives: 24,077
  Positive ratio: 0.8594
[2]; [14]
  Expected value λ: 3.133
  Number of positives: 26,856
  Positive ratio: 0.9564
[2]; [15]
  Expected value λ: 0.3978
  Number of positives: 9,216
  Positive ratio: 0.3282
[2]; [16]
  Expected value λ: 0.1873
  Number of positives: 4,791
  Positive ratio: 0.1708
[2]; [17]
  Expected value λ: 0.1593
  Number of positives: 4,129
  Positive ratio: 0.1472
[2]; [18]
  Expected value λ: 0.0176
  Number of positives: 490
  Positive ratio: 0.01745
[2]; [19]
  Expected value λ: 0.01104
  Number of positives: 308
  Positive ratio: 0.01098
[2]; [20]
  Expected value λ: 0.01161
  Number of positives: 324
  Positive ratio: 0.01154
[2]; [21]
  Expected value λ: 0.02444
  Number of positives: 678
  Positive ratio: 0.02415
[2]; [22]
  Expected value λ: 0.00075
  Number of positives: 21
  Positive ratio: 0.00075
